Here are results for five compounds from ChEMBL document CHEMBL1765041, “An unprecedented neolignan skeleton from Chimarrhis turbinata” (J Nat Prod, 2011).

This experiment has as its system Radical scavenging activity. As to the kind of experiment: Antioxidant activity assessed as DPPH free radical scavenging activity after 30 mins in dark by spectrophotometry. It counts as functional.
In the case of `COC(=O)C1(O)C[C@@H](O)[C@@H](O)[C@H](OC(=O)/C=C/c2ccc(O)c(O)c2)C1` (stereo not given in full), the IC50 was 18.6 µM. For `O=C(O[C@H]1[C@H]([C@@]2(c3ccc(O)c(O)c3)CC[C@H](Cc3ccc(O)c(O)c3)C(=O)O2)OC[C@@H]1O)c1cc(O)cc(O)c1` [CHIMARRHININ], the IC50 was determined as 7.5 µM. For `O=C(/C=C/c1ccc(O)c(O)c1)O[C@@H]1C[C@](O)(C(=O)O)C[C@@H](O)[C@H]1O` [CHLOROGENIC ACID] the value was 20 µM. In the case of `COC(=O)C1(O)C[C@@H](O)[C@@H](O)[C@H](OC(=O)/C=C\c2ccc(O)c(O)c2)C1` (stereo not given in full), the concentration for half-maximal inhibition (IC50) was determined as 18.5 µM.

`Cc1cc(C(C)(C)C)c(O)c(C(C)(C)C)c1` [BUTYLATED HYDROXYTOLUENE]: the IC50 was 62.5 µM.
